US20130072430A1, “METHODS FOR TREATMENT OR PROPHYLAXIS OF KIDNEY OR LIVER DYSFUNCTION” (NPS PHARMACEUTICALS, INC., priority 2010, published 2013)

Test system: Human patients with short bowel syndrome
Test: Example 1: liver diagnostic biomarkers (total bilirubin, ALT, AST, ALP) in short bowel syndrome patients, every four weeks for 24 weeks
Format: in vivo
Design: AST (SGOT) Change from Baseline, Median / ALT (SGPT), Median / TOTAL BILIRUBIN, Median / TOTAL BILIRUBIN Change from Baseline, Median / ALT (SGPT) Change from Baseline, Median / AST (SGOT), Median: unit not given here
Method: Human patients with short bowel syndrome were divided into three groups: a control group (16 total individuals) to receive placebo, an experimental group (35 total individuals) to receive teduglutide at 0.05 mg/kg/day throughout the study, and an experimental group (32 total individuals) to receive teduglutide at 0.1 mg/kg/day throughout the study. Patients were treated by subcutaneous injection of placebo or the appropriate dose of teduglutide. As individuals with short bowel syndrome are likely to experience associated liver and kidney disease, known biomarkers of liver and kidney function were monitored every four weeks, for 24 weeks. The liver biomarkers tested included total bilirubin, ALT and AST and ALP. The kidney biomarkers tested included urea nitrogen, creatinine and GFR. Before administration of placebo or teduglutide, diagnostic biomarker levels were tested to establish a baseline for each individual.
To visualize the effect of GLP-2 on the levels of the diagnostic biomarkers, the average change from baseline was calculated for the placebo and teduglutide treated groups for each visit after a baseline was established. The average change from baseline of each group is depicted in FIGS. […]. The numerical figures for each diaanostic biomarker at each time point are depicted in Table 1.
The efficacy of teduglutide in treating liver dysfunction was further tested by sorting the data into two groups: individuals with abnormal baseline values of liver diagnostic biomarkers; and individuals with normal baseline values of liver diagnostic biomarkers. The mean diagnostic biomarker change from baseline for these two groups is shown for ALT (FIGS. 5 and 6) and AST (FIGS. 7 and 8). […] These changes were significant when compared to baseline levels for the group, and when compared to placebo (see FIGS. 5 and 7).
The raw data for this sorting is reproduced in Table 2 below.

[1] = Week 4, range <−5%, teduglutide 0.05 mg/kg/day
[2] = Week 4, range <−5%, teduglutide 0.1 mg/kg/day
[3] = Week 4, range >5%, teduglutide 0.05 mg/kg/day
[4] = Week 4, range >5%, teduglutide 0.1 mg/kg/day
[5] = Week 4, range −5%<= and <=5%, teduglutide 0.05 mg/kg/day
[6] = Week 4, range −5%<= and <=5%, teduglutide 0.1 mg/kg/day
[7] = Week 8, range <−5%, teduglutide 0.05 mg/kg/day
[8] = Week 8, range <−5%, teduglutide 0.1 mg/kg/day
[9] = Week 8, range >5%, teduglutide 0.05 mg/kg/day
[10] = Week 8, range >5%, teduglutide 0.1 mg/kg/day
[11] = Week 8, range −5%<= and <=5%, teduglutide 0.05 mg/kg/day
[12] = Week 8, range −5%<= and <=5%, teduglutide 0.1 mg/kg/day
[13] = Week 12, range <−5%, teduglutide 0.05 mg/kg/day
[14] = Week 12, range <−5%, teduglutide 0.1 mg/kg/day
[15] = Week 12, range >5%, teduglutide 0.05 mg/kg/day
[16] = Week 12, range >5%, teduglutide 0.1 mg/kg/day

CC[C@H](C)[C@H](NC(=O)[C@H](Cc1ccccc1)NC(=O)[C@H](CC(=O)O)NC(=O)[C@H](CCCNC(=N)N)NC(=O)[C@H](C)NC(=O)[C@H](C)NC(=O)[C@H](CC(C)C)NC(=O)[C@H](CC(N)=O)NC(=O)[C@H](CC(=O)O)NC(=O)[C@H](CC(C)C)NC(=O)[C@@H](NC(=O)[C@@H](NC(=O)[C@H](CC(N)=O)NC(=O)[C@H](CCSC)NC(=O)[C@H](CCC(=O)O)NC(=O)[C@H](CC(=O)O)NC(=O)[C@H](CO)NC(=O)[C@H](Cc1ccccc1)NC(=O)[C@H](CO)NC(=O)CNC(=O)[C@H](CC(=O)O)NC(=O)CNC(=O)[C@@H](N)Cc1c[nH]cn1)[C@@H](C)O)[C@@H](C)CC)C(=O)N[C@@H](CC(N)=O)C(=O)N[C@@H](Cc1c[nH]c2ccccc12)C(=O)N[C@@H](CC(C)C)C(=O)N[C@H](C(=O)N[C@@H](CCC(N)=O)C(=O)N[C@H](C(=O)N[C@@H](CCCCN)C(=O)N[C@H](C(=O)N[C@H](C(=O)N[C@@H](CC(=O)O)C(=O)O)[C@@H](C)O)[C@@H](C)CC)[C@@H](C)O)[C@@H](C)CC [teduglutide]
AST (SGOT), Median (0.10 mg/kg/day, DW20): 30.0 | TOTAL BILIRUBIN Change from Baseline, Mean (SD) (0.10 mg/kg/day, DW20): −2.7 (14.42) | TOTAL BILIRUBIN Change from Baseline, Median (0.10 mg/kg/day, DW20): 0.0 | TOTAL BILIRUBIN, Mean (SD) (0.10 mg/kg/day, DW20): 10.4 (10.13) | TOTAL BILIRUBIN, Median (0.10 mg/kg/day, DW20): 7.0 | ALKALINE PHOSPHATASE Change from Baseline, Mean (SD) (0.10 mg/kg/day, DW24): −18.9 (67.08) | ALKALINE PHOSPHATASE Change from Baseline, Median (0.10 mg/kg/day, DW24): −21.0 | ALKALINE PHOSPHATASE, Mean (SD) (0.10 mg/kg/day, DW24): 136.7 (85.50) | ALKALINE PHOSPHATASE, Median (0.10 mg/kg/day, DW24): 105.0 | ALT (SGPT) Change from Baseline, Mean (SD) (0.10 mg/kg/day, DW24): −7.3 (32.62) | ALT (SGPT) Change from Baseline, Median (0.10 mg/kg/day, DW24): −4.0 | ALT (SGPT), Mean (SD) (0.10 mg/kg/day, DW24): 42.2 (27.28) | ALT (SGPT), Median (0.10 mg/kg/day, DW24): 37.0 | AST (SGOT) Change from Baseline, Mean (SD) (0.10 mg/kg/day, DW24): −4.8 (23.34) | AST (SGOT) Change from Baseline, Median (0.10 mg/kg/day, DW24): −3.0 | AST (SGOT), Mean (SD) (0.10 mg/kg/day, DW24): 35.3 (18.69) | AST (SGOT), Median (0.10 mg/kg/day, DW24): 32.0 | TOTAL BILIRUBIN Change from Baseline, Mean (SD) (0.10 mg/kg/day, DW24): −2.4 (12.73) | TOTAL BILIRUBIN Change from Baseline, Median (0.10 mg/kg/day, DW24): 0.0 | TOTAL BILIRUBIN, Mean (SD) (0.10 mg/kg/day, DW24): 11.3 (12.28) | TOTAL BILIRUBIN, Median (0.10 mg/kg/day, DW24): 9.0 | ALKALINE PHOSPHATASE change from baseline: patients in range, n(%) [1]: 21(60.0%) | ALT (SGPT) change from baseline: patients in range, n(%) [1]: 22(62.9%) | AST (SGOT) change from baseline: patients in range, n(%) [1]: 21(60.0%) | TOTAL BILIRUBIN change from baseline: patients in range, n(%) [1]: 12(34.3%) | ALKALINE PHOSPHATASE change from baseline: patients in range, n(%) [2]: 17(53.1%) | ALT (SGPT) change from baseline: patients in range, n(%) [2]: 20(62.5%) | AST (SGOT) change from baseline: patients in range, n(%) [2]: 17(53.1%) | TOTAL BILIRUBIN change from baseline: patients in range, n(%) [2]: 16(50.0%) | ALKALINE PHOSPHATASE change from baseline: patients in range, n(%) [3]: 3(8.6%) | ALT (SGPT) change from baseline: patients in range, n(%) [3]: 8(22.9%) | AST (SGOT) change from baseline: patients in range, n(%) [3]: 5(14.3%) | TOTAL BILIRUBIN change from baseline: patients in range, n(%) [3]: 8(22.9%) | ALKALINE PHOSPHATASE change from baseline: patients in range, n(%) [4]: 11(34.4%) | ALT (SGPT) change from baseline: patients in range, n(%) [4]: 10(31.3%) | AST (SGOT) change from baseline: patients in range, n(%) [4]: 10(31.3%) | TOTAL BILIRUBIN change from baseline: patients in range, n(%) [4]: 12(37.5%) | ALKALINE PHOSPHATASE change from baseline: patients in range, n(%) [5]: 6(17.1%) | ALT (SGPT) change from baseline: patients in range, n(%) [5]: 0(0.0%) | AST (SGOT) change from baseline: patients in range, n(%) [5]: 2(5.7%) | TOTAL BILIRUBIN change from baseline: patients in range, n(%) [5]: 6(17.1%) | ALKALINE PHOSPHATASE change from baseline: patients in range, n(%) [6]: 4(12.5%) | ALT (SGPT) change from baseline: patients in range, n(%) [6]: 2(6.3%) | AST (SGOT) change from baseline: patients in range, n(%) [6]: 4(12.5%) | TOTAL BILIRUBIN change from baseline: patients in range, n(%) [6]: 3(9.4%) | ALKALINE PHOSPHATASE change from baseline: patients in range, n(%) [7]: 21(60.0%) | ALT (SGPT) change from baseline: patients in range, n(%) [7]: 16(45.7%) | AST (SGOT) change from baseline: patients in range, n(%) [7]: 16(45.7%) | TOTAL BILIRUBIN change from baseline: patients in range, n(%) [7]: 13(37.1%) | ALKALINE PHOSPHATASE change from baseline: patients in range, n(%) [8]: 24(75.0%) | ALT (SGPT) change from baseline: patients in range, n(%) [8]: 20(62.5%) | AST (SGOT) change from baseline: patients in range, n(%) [8]: 21(65.6%) | TOTAL BILIRUBIN change from baseline: patients in range, n(%) [8]: 16(50.0%) | ALKALINE PHOSPHATASE change from baseline: patients in range, n(%) [9]: 6(17.1%) | ALT (SGPT) change from baseline: patients in range, n(%) [9]: 9(25.7%) | AST (SGOT) change from baseline: patients in range, n(%) [9]: 9(25.7%) | TOTAL BILIRUBIN change from baseline: patients in range, n(%) [9]: 8(22.9%) | ALKALINE PHOSPHATASE change from baseline: patients in range, n(%) [10]: 5(15.6%) | ALT (SGPT) change from baseline: patients in range, n(%) [10]: 8(25.0%) | AST (SGOT) change from baseline: patients in range, n(%) [10]: 5(15.6%) | TOTAL BILIRUBIN change from baseline: patients in range, n(%) [10]: 7(21.9%) | ALKALINE PHOSPHATASE change from baseline: patients in range, n(%) [11]: 2(5.7%) | ALT (SGPT) change from baseline: patients in range, n(%) [11]: 4(11.4%) | AST (SGOT) change from baseline: patients in range, n(%) [11]: 4(11.4%) | TOTAL BILIRUBIN change from baseline: patients in range, n(%) [11]: 4(11.4%) | ALKALINE PHOSPHATASE change from baseline: patients in range, n(%) [12]: 2(6.3%) | ALT (SGPT) change from baseline: patients in range, n(%) [12]: 2(6.3%) | AST (SGOT) change from baseline: patients in range, n(%) [12]: 4(12.5%) | TOTAL BILIRUBIN change from baseline: patients in range, n(%) [12]: 6(18.8%) | ALKALINE PHOSPHATASE change from baseline: patients in range, n(%) [13]: 23(65.7%) | ALT (SGPT) change from baseline: patients in range, n(%) [13]: 19(54.3%) | AST (SGOT) change from baseline: patients in range, n(%) [13]: 19(54.3%) | TOTAL BILIRUBIN change from baseline: patients in range, n(%) [13]: 14(40.0%) | ALKALINE PHOSPHATASE change from baseline: patients in range, n(%) [14]: 19(59.4%) | ALT (SGPT) change from baseline: patients in range, n(%) [14]: 20(62.5%) | AST (SGOT) change from baseline: patients in range, n(%) [14]: 15(46.9%) | TOTAL BILIRUBIN change from baseline: patients in range, n(%) [14]: 14(43.8%) | ALKALINE PHOSPHATASE change from baseline: patients in range, n(%) [15]: 2(5.7%) | ALT (SGPT) change from baseline: patients in range, n(%) [15]: 4(11.4%) | AST (SGOT) change from baseline: patients in range, n(%) [15]: 5(14.3%) | TOTAL BILIRUBIN change from baseline: patients in range, n(%) [15]: 6(17.1%) | ALKALINE PHOSPHATASE change from baseline: patients in range, n(%) [16]: 10(31.3%) | ALT (SGPT) change from baseline: patients in range, n(%) [16]: 7(21.9%) | AST (SGOT) change from baseline: patients in range, n(%) [16]: 10(31.3%) | TOTAL BILIRUBIN change from baseline: patients in range, n(%) [16]: 9(28.1%) | ALKALINE PHOSPHATASE change from baseline: patients in range, n(%) (Week 12, range −5%<= and <=5%, teduglutide 0.05 mg/kg/day): 2(5.7%)
